Assay results from patent US11377444B2, “Pyridopyrimidine compounds acting as mTORC 1/2 dual inhibitors” (MEDSHINE DISCOVERY INC., priority 2017, dated 2022).

Tests used:
[1] = target: T1, mTOR kinase (mTORC1 and mTORC2 kinase complex) (Homo sapiens, UniProt P42345); assay: In vitro evaluation of mTOR kinase inhibitory activity (DiscoverX ligand-bead competition binding, qPCR readout)
T1 construct: purchased DiscoverX; host or cells: HEK-293
Method: Experimental Embodiment 1: In Vitro Evaluation of mTOR Kinase Inhibitory Activity This experiment was performed by DiscoverX. All materials and methods were obtained from DiscoverX.
Kinase activity analysis.
1. Labeled mTOR kinase was stably expressed in HEK-293 cells.
2. Streptavidin magnetic beads were treated with biotinylated small molecule ligands at room temperature for 30 minutes to produce affinity resin for kinase analysis;
3. Ligand beads were blocked with excess biotin and washed with buffer (1% bovine serum albumin, […]) to remove unbound ligand and non-specifically bound ligand;
4. The assembly of kinase and ligand and affinity beads, and the binding reaction between the compound and the three were performed in buffer (20% blocking buffer, 0.17x phosphate buffer, 0.05% Tween […]);
5. The test compounds were dissolved in dimethyl sulfoxide;
6. All test compounds were dissolved in DMSO, and then directly diluted […]
7. The solution was placed in a 384-well polypropylene plate, wherein the volume of each well was 0.02 mL;
8. The plate was shaked for an hour at room temperature;
9. The plate was washed with buffer (1× PBS, 0.05% Tween 20);
10. The affinity beads were resuspended in buffer (1× PBS, 0.05% Tween […] non-biotin affinity ligand) and incubated at room temperature for 30 minutes;
11. The kinase concentration in the eluate was deteced by qPCR.

[2] = tested on: human breast cancer MCF-7 cell subcutaneous xenograft tumor; assay: In vivo pharmacodynamic study, MCF-7 subcutaneous xenograft tumor; set-up: species or system BALB/c nude mouse; settings: 15 mg/kg
Excerpt: Experimental Embodiment 4: In Vivo Pharmacodynamic Study on BALB/c Nude Mouse Model of Human Breast Cancer MCF-7 Cell Subcutaneous Xenograft Tumor
Experimental objective: To study the efficacy of the test compounds on human breast cancer MCF-7 cell subcutaneous xenograft tumor in BALB/c nude mouse model.
Experimental animals: Female BALB/c nude mice, 6-8 weeks old, weighing 18-22 grams; supplier: Shanghai Xipuer-Bikai Experimental Animal Co., Ltd.
Human breast cancer MCF-7 cells (ECACC, article number: 86012803) were subjected to in vitro monolayer culture under the conditions of EMEM (EBSS)+2 mM […]+1% Non Essential Amino Acids (NEAA) medium containing 10% fetal bovine serum, 100 U/mL penicillin and 100 μg/mL streptomycin, and 37° C., 5% CO2incubator. Conventional digestion treatment was carried out with trypsin-EDTA twice a week for cell passage. When the cell saturation was 80%-90%, and the quantity reached the requirement, the cells were collected, counted and inoculated.
Estrogen tablets (0.18 mg) were inoculated into the left back of each mouse three days before cell inoculation, 0.2 mL (1×10^7) MCF-7 cells (added with matrigel, volume ratio of 1:1) were subcutaneously inoculated into the right back of each mouse. When the average volume of tumor reached 142 mm^3, the mice were divided into groups and began to be administrated.
The test compounds were prepared into clear solutions of 0.75 mg/mL, 1.5 mg/mL and 3 mg/mL. The vehicles were 5% DMSO+30% polyethylene glycol 300+65% water.
The experimental indexes were used for investigating whether the growth of the tumors had been inhibited, delayed or cured. The diameters of the tumors were measured with vernier calipers twice a week. The calculation formula of the tumor volume was: V=0.5a×b^2, wherein a and b represent the long and short diameters of the tumor respectively.
The antitumor efficacy of the compound was evaluated by TGI (%) or relative tumor proliferation rate T/C (%). TGI (%) reflects the inhibition rate of the tumor growth. Calculation of TGI (%): TGI (%)=[1−(average tumor volume at the end of administration in the treatment group−average tumor volume at the beginning of administration in the treatment group)/(average tumor volume at the end of treatment in the vehicle control group−average tumor volume at the beginning of treatment in the vehicle control group)]×[…].
Relative tumor proliferation rate T/C (%): The calculation formula was as follows: T/C %=TRTV/CRTV at the beginning of the treatment (TRTV: treatment group RTV; CRTV: negative control group RTV). The relative tumor volume (RTV) was calculated according to the results of tumor measurement. The calculation formula was RTV=Vt/V0, wherein V0 is the average tumor volume measured during administration of the groups (i.e. d0), and Vt is the average tumor volume during a certain measurement, the TRTV and CRTV were taken on the same day.
Statistical analysis included the mean and standard error (SEM) of tumor volume at each time point in each group. […] The comparison between two groups was analyzed by T-test, and the comparison between three or more groups was analyzed by one-way ANOVA.

Compound | Kd [1] | also measured
CNC(=O)c1cccc(-c2ccc3c(N4CCOCC4C)nc(N4CCC5(CC4)CC5)nc3n2)c1 (stereo not shown) [Embodiment 10] | 7.8 nM | –
CNC(=O)c1cccc(-c2ccc3c(N4CCOCC4C)nc(N4CCOC5(CCSC5)C4)nc3n2)c1 (single isomer, unassigned) [Embodiment 45-1] | 0.5 nM | –
C[C@H]1COCCN1c1nc(N2CCOC3(CC3)C2)nc2nc(-c3cccc(-c4ccn[nH]4)c3)ccc12 [Embodiment 17] | 3.4 nM | –
CNC(=O)c1cccc(-c2ccc3c(N4CCOCC4C)nc(N4CCOC5(CNC(=O)C5)C4)nc3n2)c1 (single isomer, unassigned) [Embodiment 53-2] | 1.8 nM | –
C[C@H]1COCCN1c1nc(N2CCOC3(CC3)C2)nc2nc(-c3ccc4cnc(N)nc4c3)ccc12 [Embodiment 25] | 1.4 nM | –
CNC(=O)c1cccc(-c2ccc3c(N4CCOC[C@@H]4C)nc(N4CCOC5(COC5)C4)nc3n2)c1 [Embodiment 40] | 0.78 nM | –
CNC(=O)c1cccc(-c2ccc3c(N4CCOC[C@@H]4C)nc(N4CC5(CCOCC5)C4)nc3n2)c1 [Embodiment 6] | 12 nM | –
C[C@H]1COCCN1c1nc(N2CCOC3(C2)CC(F)(F)C3)nc2nc(-c3cccc(C(=O)NC4CC4)c3)ccc12 [Embodiment 29] | 2.7 nM | –
CNC(=O)c1cccc(-c2ccc3c(N4CCOC[C@@H]4C)nc(N4CCOC5(CSC5)C4)nc3n2)c1 [Embodiment 41] | 0.94 nM | –
CNC(=O)c1cccc(-c2ccc3c(N4CCOCC4C)nc(N4CCOC5CC54)nc3n2)c1 (single isomer, unassigned) [Embodiment 18-2] | 0.5 nM | –
C[C@H]1COCCN1c1nc(N2CCOC3(CC3)C2)nc2nc(-c3ccc4ccc(N)nc4c3)ccc12 [Embodiment 14] | 0.25 nM | –
C[C@H]1COCCN1c1nc(N2CCOC3(CC3)C2)nc2nc(-c3ccc4nc(N)ncc4c3)ccc12 [Embodiment 16] | 1.5 nM | –
CC1COCCN1c1nc(N2CCOC3(CCOC3)C2)nc2nc(-c3cccc(C(N)=O)c3)ccc12 (single isomer, unassigned) [Embodiment 50-1] | 1.9 nM | –
CNC(=O)c1cccc(-c2ccc3c(N4CCOC[C@@H]4C)nc(N4CCOC5(CN(C)C5)C4)nc3n2)c1 [Embodiment 27] | 6.6 nM | –
CNC(=O)c1cccc(-c2ccc3c(N4CCOC[C@@H]4C)nc(N4CCOC5(C4)CC(F)(F)C5)nc3n2)c1 [Embodiment 28] | 1.4 nM | –
CC1COCCN1c1nc(N2CCOC3(CCCC3)C2)nc2nc(-c3cccc(C(N)=O)c3)ccc12 (stereo not shown) [Embodiment 49] | 0.3 nM | T/C [2]: 121.62%; TGI [2]: −37.89%; RTV (27th day) ([2]; 27th day): 5.07 ± 0.92; Tumor volume (27th day) ([2]; 27th day, mean ± SEM): 759 ± 174 mm^3; Tumor volume (day 0) ([2]; day 0, mean ± SEM): 144 ± 14 mm^3
CNC(=O)c1cccc(-c2ccc3c(N4CCOC[C@@H]4C)nc(N4CCOC5(CNC5)C4)nc3n2)c1 [Embodiment 15] | 3.3 nM | –
CONC(=O)c1cccc(-c2ccc3c(N4CCOC[C@@H]4C)nc(N4CCOC5(CC5)C4)nc3n2)c1 [Embodiment 3] | 0.32 nM | –
CNC(=O)c1cccc(-c2ccc3c(N4CCOC[C@@H]4C)nc(N4CCC5(CC4)COC5)nc3n2)c1 [Embodiment 7] | 6.4 nM | –

Compound | Kd [1] | also measured
C[C@H]1COCCN1c1nc(N2CCOC3(CC3)C2)nc2nc(-c3cccc(C(=O)NC(C)(C)C)c3)ccc12 [Embodiment 22] | 1.5 nM | –
CNC(=O)c1cccc(-c2ccc3c(N4CCOC[C@@H]4C)nc(N4CCCC5(C4)OCCO5)nc3n2)c1 [Embodiment 31] | 5 nM | –
CNC(=O)c1cccc(-c2ccc3c(N4CCOCC4C)nc(N4CCOC5(CC[S+]([O-])C5)C4)nc3n2)c1 (single isomer, unassigned) [Embodiment 46-2] | 4.9 nM | –
CNC(=O)c1cccc(-c2ccc3c(N4CCOC[C@@H]4C)nc(N4CCOC5(C4)CS(=O)(=O)C5)nc3n2)c1 [Embodiment 43] | 12 nM | –
CNC(=O)c1cccc(-c2ccc3c(N4CCOCC4C)nc(N4CCOC5(CCS(=O)(=O)C5)C4)nc3n2)c1 (single isomer, unassigned) [Embodiment 47-2] | 7.9 nM | –
CNC(=O)c1cccc(-c2ccc3c(N4CCOC[C@@H]4C)nc(N4CCOC5(C4)C[S+]([O-])C5)nc3n2)c1 (stereo partly shown) [Embodiment 42] | 0.93 nM | –
C[C@H]1COCCN1c1nc(N2CCOC3(CC3)C2)nc2nc(-c3cccc(C(=O)NO)c3)ccc12 [Embodiment 4] | 0.22 nM | –
Nc1nc2cc(-c3ccc4c(N5C6CCC5COC6)nc(N5CCOC6(CC6)C5)nc4n3)ccc2o1 [Embodiment 11] | 1.2 nM | –
CNC(=O)c1cccc(-c2ccc3c(N4CCOCC4C)nc(N4CCOC5(CNC(=O)C5)C4)nc3n2)c1 (single isomer, unassigned) [Embodiment 53-1] | 1.1 nM | –
CNC(=O)c1cccc(-c2ccc3c(N4CCOCC4C)nc(N4CCOC5CC54)nc3n2)c1 (single isomer, unassigned) [Embodiment 18-1] | 3 nM | –
CNC(=O)c1cccc(-c2ccc3c(N4CCOC[C@@H]4C)nc(C4CCC5(CC4)OCCO5)nc3n2)c1 [Embodiment 5] | 0.66 nM | –
CNC(=O)c1cccc(-c2ccc3c(N4CCOCC4C)nc(N4CCC5(CCOC5)CC4)nc3n2)c1 (stereo not shown) [Embodiment 8] | 5.9 nM | –
CNC(=O)c1cccc(-c2ccc3c(N4CCOCC4C)nc(N4CCOC5(CC[S+]([O-])C5)C4)nc3n2)c1 (single isomer, unassigned) [Embodiment 46-1] | 1 nM | –
CNC(=O)c1cccc(-c2ccc3c(N4CCOC[C@@H]4C)nc(N4CCOCC45CC5)nc3n2)c1 [Embodiment 20] | 0.97 nM | –
CNC(=O)c1cccc(-c2ccc3c(N4CCOCC4C)nc(N4CCOC5(CCSC5)C4)nc3n2)c1 (single isomer, unassigned) [Embodiment 45-2] | 1.7 nM | –
C[C@H]1COCCN1c1nc(N2CCOC3(CC3)C2)nc2nc(-c3cccc(-c4nc[nH]n4)c3)ccc12 [Embodiment 19] | 3 nM | –
CNC(=S)c1cccc(-c2ccc3c(N4CCOC[C@@H]4C)nc(N4CCOC5(CC5)C4)nc3n2)c1 [Embodiment 2] | 0.15 nM | –
CNC(=O)c1cccc(-c2ccc3c(N4CCOCC4C)nc(N4CCOC5(CCS(=O)(=O)C5)C4)nc3n2)c1 (single isomer, unassigned) [Embodiment 47-1] | 7.9 nM | –
CNC(=O)c1cccc(-c2ccc3c(N4CCOCC4C)nc(N4CC5(CCOC5)OCC4C)nc3n2)c1 (single isomer, unassigned) [Embodiment 48-1] | 1.8 nM | –
